# Results: article PMC9737911 (2022)
# Assays:
# [1] = tested on: OT-Bea-1bp (DNA, aptamer) TCGGGTGTGGGTGGCGTAAAGGGAGCA; test: fluorescence quenching (FAM/BHQ1 beacon), single concentration; settings: 120 mM NaCl, 20 mM CaCl2; 20 mM Tris-HCl pH 7.5; 50 nM probe, 500 nM OTA; negligible fluorescence change
# [2] = tested on: OT-Bea-2bp (DNA, aptamer) ATCGGGTGTGGGTGGCGTAAAGGGAGCAT; test: as above; settings: 120 mM NaCl, 20 mM CaCl2; 20 mM Tris-HCl pH 7.5; 50 nM probe, 500 nM OTA; 37% quenching
# [3] = tested on: OT-Bea-4bp (DNA, aptamer) CGATCGGGTGTGGGTGGCGTAAAGGGAGCATCG; test: fluorescence quenching titration (FAM/BHQ1 beacon); settings: 120 mM NaCl, 2 mM CaCl2; 20 mM Tris-HCl pH 8.5, 0.1% Tween 20, room temperature, 50 nM probe
# [4] = tested on: OT-Bea-5bp (DNA, aptamer) GCGATCGGGTGTGGGTGGCGTAAAGGGAGCATCGC; test: fluorescence quenching (FAM/BHQ1 beacon), single concentration; settings: 120 mM NaCl, 20 mM CaCl2; 20 mM Tris-HCl pH 7.5; 50 nM probe, 500 nM OTA; small signal change
# [5] = tested on: OT-Bea-3bp (DNA, aptamer) GATCGGGTGTGGGTGGCGTAAAGGGAGCATC; test: as above; settings: 120 mM NaCl, 20 mM CaCl2; 20 mM Tris-HCl pH 7.5; 50 nM probe, 500 nM OTA; 41% quenching
# [6] = tested on: OT-Bea-4bp (DNA, aptamer) CGATCGGGTGTGGGTGGCGTAAAGGGAGCATCG; test: as above; settings: 120 mM NaCl, 2 mM CaCl2; highest concentration tested 200 nM; no quenching
smiles,measurement,setting,value
C[C@@H]1Cc2c(Cl)cc(C(=O)N[C@@H](Cc3ccccc3)C(=O)O)c(O)c2C(=O)O1,binding,[1],weak
same,binding,[2],yes
same,Kd,[3],16 ± 2 nM
same,binding,[4],yes
same,binding,[5],yes
CCCC[C@@H](C)[C@@H](OC(=O)C[C@@H](CC(=O)O)C(=O)O)[C@H](C[C@@H](C)C[C@H](O)CCCC[C@@H](O)C[C@H](O)[C@H](C)N)OC(=O)C[C@@H](CC(=O)O)C(=O)O,binding,[6],no
C[C@H]1CCCC(=O)CCC/C=C/c2cc(O)cc(O)c2C(=O)O1,binding,[6],no
C[C@@H]1Cc2ccc(C(=O)N[C@@H](Cc3ccccc3)C(=O)O)c(O)c2C(=O)O1,binding,[6],no
CCCC[C@@H](C)[C@@H](OC(=O)C[C@@H](CC(=O)O)C(=O)O)[C@H](C[C@@H](C)CCCCCC[C@@H](O)C[C@H](O)[C@H](C)N)OC(=O)C[C@@H](CC(=O)O)C(=O)O,binding,[6],no
